From patent US20250346605A1, “NEW DERIVATIVES FOR TREATING TRPM3 MEDIATED DISORDERS” (Katholieke Universiteit Leuven, priority 2022, published 2025) come the findings set out here.

SMILES strings stand for the structures.

This assay deals with T1, mouse TRPM3α2 (mTRPM3) ion channel (Mus musculus, UniProt J9SQF3).
T1 construct: expressed in transfected cells; host or cells: Flp-In HEK293
T1 sequence (J9SQF3 1-1709 isoform J9SQF3-12): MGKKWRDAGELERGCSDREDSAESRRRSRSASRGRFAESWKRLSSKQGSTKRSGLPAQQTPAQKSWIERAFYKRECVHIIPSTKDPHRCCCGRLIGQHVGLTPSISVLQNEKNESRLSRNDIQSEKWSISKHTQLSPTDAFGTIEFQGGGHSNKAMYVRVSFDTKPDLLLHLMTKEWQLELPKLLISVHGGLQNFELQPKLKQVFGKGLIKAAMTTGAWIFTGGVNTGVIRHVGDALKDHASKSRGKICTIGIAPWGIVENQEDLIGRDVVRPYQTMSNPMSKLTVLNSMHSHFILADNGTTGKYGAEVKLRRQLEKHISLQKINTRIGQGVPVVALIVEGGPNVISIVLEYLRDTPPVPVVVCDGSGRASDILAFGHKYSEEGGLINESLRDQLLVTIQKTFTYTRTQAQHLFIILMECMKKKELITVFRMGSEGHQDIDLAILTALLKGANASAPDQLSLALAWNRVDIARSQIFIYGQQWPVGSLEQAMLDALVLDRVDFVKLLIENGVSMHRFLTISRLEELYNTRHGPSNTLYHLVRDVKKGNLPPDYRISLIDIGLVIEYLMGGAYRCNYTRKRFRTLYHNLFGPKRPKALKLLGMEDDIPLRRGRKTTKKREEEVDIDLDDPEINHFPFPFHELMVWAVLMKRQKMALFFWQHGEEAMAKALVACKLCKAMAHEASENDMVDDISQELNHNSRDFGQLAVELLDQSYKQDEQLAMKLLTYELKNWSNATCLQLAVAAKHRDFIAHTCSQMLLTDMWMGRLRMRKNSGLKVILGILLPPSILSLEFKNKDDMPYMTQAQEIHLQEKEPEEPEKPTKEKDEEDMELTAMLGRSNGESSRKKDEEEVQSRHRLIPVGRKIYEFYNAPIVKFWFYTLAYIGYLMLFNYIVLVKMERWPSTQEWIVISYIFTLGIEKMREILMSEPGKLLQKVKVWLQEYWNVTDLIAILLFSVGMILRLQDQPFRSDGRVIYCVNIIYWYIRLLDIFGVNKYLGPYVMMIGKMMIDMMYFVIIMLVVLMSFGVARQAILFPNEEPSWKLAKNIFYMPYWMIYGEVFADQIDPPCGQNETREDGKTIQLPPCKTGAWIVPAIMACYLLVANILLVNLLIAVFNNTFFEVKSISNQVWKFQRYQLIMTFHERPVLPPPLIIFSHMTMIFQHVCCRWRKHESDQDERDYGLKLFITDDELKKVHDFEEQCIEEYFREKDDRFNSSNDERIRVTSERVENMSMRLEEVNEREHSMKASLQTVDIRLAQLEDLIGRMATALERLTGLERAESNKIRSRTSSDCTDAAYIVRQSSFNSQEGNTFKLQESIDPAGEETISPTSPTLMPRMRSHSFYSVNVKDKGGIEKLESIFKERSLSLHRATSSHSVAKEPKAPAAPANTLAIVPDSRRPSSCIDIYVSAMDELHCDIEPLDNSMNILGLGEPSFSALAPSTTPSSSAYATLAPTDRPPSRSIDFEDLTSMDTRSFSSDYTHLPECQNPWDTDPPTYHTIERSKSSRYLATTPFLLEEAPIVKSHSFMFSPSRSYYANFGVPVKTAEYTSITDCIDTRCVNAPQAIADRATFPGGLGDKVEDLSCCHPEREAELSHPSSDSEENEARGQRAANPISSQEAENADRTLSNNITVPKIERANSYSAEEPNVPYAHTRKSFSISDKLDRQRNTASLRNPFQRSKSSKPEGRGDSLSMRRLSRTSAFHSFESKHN
The assay can be described thus: TRPM3 ion channel driven Ca2+ uptake (Fluo-4 AM assay), PS-stimulated overexpressing HEK293 cells. The class given is cell-based. The following applies: flip-in HEK293 overexpressing TRPM3, stimulated with Pregnenolone sulfate (PS) 50 μM, activity ranges A, B, C. The procedure: In order to monitor the inhibition of the mouse TRPM3α2 (mTRPM3) ion channel by the compounds of the invention, a cellular system making use of an mTRPM3alpha2 or hTRPM3 overexpressing cell line (flip-in HEK293) was used. The TRPM3 channel was stimulated/opened with Pregnenolone sulfate (PS) (50 μM) which results in Ca^2+ influx.
For mTRPM3, the intracellular Ca^2+ was measured with a Calcium responsive dye, Fluor-4 AMV ester (Invitrogen). Cells were cultured until a confluence of 80-90%, washed with Versene (Invitrogen) and detached from the surface by a short incubation with 0.05% Trypsin (Invitrogen). The trypsination process was stopped by the addition of complete cell culture medium (DMEM, glutamax, 10% FCS, NEAA, Pen-Strep). Cells were collected and resuspended in Krebs buffer without Calcium at RT.
Prior the cell seeding (±2000 cells/well into a black, 384 well plate (Greiner)) the diluted compound was added in the assay plate, together with the PS dissolved in Krebs buffer containing Calcium. […] Directly after cell addition the plates were read on an Envision fluorescence reader (Perkin Elmer) by an Excitation of 485 nm and emission at 535 nm.
Channel inhibition was calculated compared to a non-PS stimulated control versus a condition stimulated with PS (50 μM) with vehicle. The ability of the compounds of the invention to inhibit this activity was determined as: Percentage inhibition=[1-((RFU determined for sample with test compound present−RFU determined for sample with positive control inhibitor) divided by (RFU determined in the presence of vehicle−RFU determined for sample with positive control inhibitor))]*100.
The activities of the Example compounds tested are depicted in the table below. The activity ranges A, B and C refer to IC50 values in the Fluo-4 AM assay as follows: “A”: IC50<1 μM; “B”: 1 μM≤IC50≤20 μM and “C”: IC50>20 μM
On to `Cc1oc2cnc(OCc3cccnc3C(F)(F)F)cc2c1C(=O)N[C@@H]1CCNCC1(F)F` [Cpd 025, N-[(4R)-3,3-difluoropiperidin-4-yl]-2-methyl-5-{[2-(trifluoromethyl)pyridin-3-yl]methoxy}furo[2,3-c]pyridine-3-carboxamide], for which the IC50 (commonly the concentration that gives 50% inhibition) is < 1 µM.
For `Cc1oc2cnc(OCc3ccccc3F)cc2c1C(=O)NC(C)(C)C(N)=O` [Cpd 007, 2-({5-[(2-fluorophenyl)methoxy]-2-methylfuro[2,3-c]pyridin-3-yl}formamido)-2-methylpropanamide] the value was 1 to 20 µM; for `Cc1oc2cnc(OCc3ccccn3)cc2c1C(=O)NC1(CO)CC1` [Cpd 031, N-[1-(hydroxymethyl)cyclopropyl]-2-methyl-5-[(pyridin-2-yl)methoxy]furo[2,3-c]pyridine-3-carboxamide], > 20 µM; for `Cc1oc2cnc(OCc3ccccn3)cc2c1C(=O)NC(C)(C)C(N)=O` [Cpd 012, 2-methyl-2-({2-methyl-5-[(pyridin-2-yl)methoxy]furo[2,3-c]pyridin-3-yl}formamido)propanamide], 1 to 20 µM.
As for `Cc1ncsc1COc1cc2c(C(=O)NC(CO)C(N)=O)c(C)oc2cn1` (single isomer, unassigned) [Cpd 013-En1, 3-hydroxy-2-({2-methyl-5-[(4-methyl-1,3-thiazol-5-yl)methoxy]furo[2,3-c]pyridin-3-yl}formamido)propanamide], the IC50 was > 20 µM.
On to `Cc1oc2cnc(OCc3ccccc3F)cc2c1C(=O)NC(C)C(N)=O` (single isomer, unassigned) [Cpd 009-En1, 2-({5-[(2-fluorophenyl)methoxy]-2-methylfuro[2,3-c]pyridin-3-yl}formamido)propanamide], for which the IC50 lay within 1 to 20 µM.
In the case of `Cc1oc2cnc(OCc3ccccc3)cc2c1C(=O)NC1CNCC1(F)F` (single isomer, unassigned) [Cpd 015-En2, 5-(benzyloxy)-N-(4,4-difluoropyrrolidin-3-yl)-2-methylfuro[2,3-c]pyridine-3-carboxamide] it was < 1 µM.
The compound `Cc1oc2cnc(OCc3ccccn3)cc2c1C(=O)NC(C)C(N)=O` (single isomer, unassigned) [Cpd 006 _ En2, 2-({2-methyl-5-[(pyridin-2-yl)methoxy]furo[2,3-c]pyridin-3-yl}formamido)propanamide] gave a 50% inhibitory concentration (IC50) of 1 to 20 µM.
In the case of `Cc1oc2cnc(OCc3ccccn3)cc2c1C(=O)NC1(C(N)=O)COC1` [Cpd 020, N-(3-carbamoyloxetan-3-yl)-2-methyl-5-[(pyridin-2-yl)methoxy]furo[2,3-c]pyridine-3-carboxamide] it was 1 to 20 µM; in that of `Cc1oc2cnc(OCc3ccccc3F)cc2c1C(=O)NC(C)C(N)=O` (single isomer, unassigned) [Cpd 009-En2, 2-({5-[(2-fluorophenyl)methoxy]-2-methylfuro[2,3-c]pyridin-3-yl}formamido)propanamide], 1 to 20 µM.
Take `Cc1ncsc1COc1cc2c(C(=O)NC(CO)C(N)=O)c(C)oc2cn1` (single isomer, unassigned) [Cpd 013-En2, 3-hydroxy-2-({2-methyl-5-[(4-methyl-1,3-thiazol-5-yl)methoxy]furo[2,3-c]pyridin-3-yl}formamido)propanamide]: the IC50 is < 1 µM.
As to `Cc1oc2cnc(OCc3ccccn3)cc2c1C(=O)NC1CCN(CCO)C1=O` (stereo not drawn) [Cpd 027, N-[1-(2-hydroxyethyl)-2-oxopyrrolidin-3-yl]-2-methyl-5-[(pyridin-2-yl)methoxy]furo[2,3-c]pyridine-3-carboxamide], the IC50 lay in the range of 1 to 20 µM.
The compound `Cc1oc2cnc(OCc3ccccc3F)cc2c1C(=O)NC1(CO)CC1` [Cpd 018, 5-[(2-fluorophenyl)methoxy]-N-[1-(hydroxymethyl)cyclopropyl]-2-methylfuro[2,3-c]pyridine-3-carboxamide] displayed an IC50 of 1 to 20 µM.
For the compound `Cc1ncsc1COc1cc2c(C(=O)N[C@H](C(N)=O)[C@@H](C)O)c(C)oc2cn1` [Cpd 004, (2S,3R)-3-hydroxy-2-({2-methyl-5-[(4-methyl-1,3-thiazol-5-yl)methoxy]furo[2,3-c]pyridin-3-yl}formamido)butanamide], the IC50 was < 1 µM.
As to `Cc1ncsc1COc1cc2c(C(=O)NC3CNCC3(F)F)c(C)oc2cn1` (single isomer, unassigned) [Cpd 021-En2, N-(4,4-difluoropyrrolidin-3-yl)-2-methyl-5-[(4-methyl-1,3-thiazol-5-yl)methoxy]furo[2,3-c]pyridine-3-carboxamide], the IC50 is > 20 µM.
Regarding `Cc1oc2cnc(OCc3ccccn3)cc2c1C(=O)NC(CO)C(N)=O` (single isomer, unassigned) [Cpd 014-En2, 3-hydroxy-2-({2-methyl-5-[(pyridin-2-yl)methoxy]furo[2,3-c]pyridin-3-yl}formamido)propanamide], the IC50 was < 1 µM.
In the case of `Cc1ncsc1COc1cc2c(C(=O)NC(C)C(N)=O)c(C)oc2cn1` (single isomer, unassigned) [Cpd 005-En1, 2-({2-methyl-5-[(4-methyl-1,3-thiazol-5-yl)methoxy]furo[2,3-c]pyridin-3-yl}formamido)propanamide] it was 1 to 20 µM.
For `Cc1ncc(COc2cc3c(C(=O)N[C@H](C(N)=O)[C@@H](C)O)c(C)oc3cn2)s1` [Cpd 003, (2S,3R)-3-hydroxy-2-({2-methyl-5-[(2-methyl-1,3-thiazol-5-yl)methoxy]furo[2,3-c]pyridin-3-yl}formamido)butanamide] the value was 1 to 20 µM; for `Cc1oc2cnc(OCc3ccccn3)cc2c1C(=O)NC(CO)C(N)=O` (single isomer, unassigned) [Cpd 014-En1, 3-hydroxy-2-({2-methyl-5-[(pyridin-2-yl)methoxy]furo[2,3-c]pyridin-3-yl}formamido)propanamide], 1 to 20 µM.
For `Cc1ncsc1COc1cc2c(C(=O)NC3CNCC3(F)F)c(C)oc2cn1` (single isomer, unassigned) [Cpd 021-En1, N-(4,4-difluoropyrrolidin-3-yl)-2-methyl-5-[(4-methyl-1,3-thiazol-5-yl)methoxy]furo[2,3-c]pyridine-3-carboxamide] the value was < 1 µM; for `Cc1oc2cnc(OCc3ccccc3)cc2c1C(=O)NC1(CO)CCOCC1` [Cpd 016, 5-(benzyloxy)-N-[4-(hydroxymethyl)oxan-4-yl]-2-methylfuro[2,3-c]pyridine-3-carboxamide], > 20 µM; for `Cc1oc2cnc(OCc3ccccc3)cc2c1C(=O)NC1CNCC1(F)F` (single isomer, unassigned) [Cpd 015-En1, 5-(benzyloxy)-N-(4,4-difluoropyrrolidin-3-yl)-2-methylfuro[2,3-c]pyridine-3-carboxamide], > 20 µM.
With `Cc1ncsc1COc1cc2c(C(=O)NC3(CO)CC3)c(C)oc2cn1` [Cpd 030, N-[1-(hydroxymethyl)cyclopropyl]-2-methyl-5-[(4-methyl-1,3-thiazol-5-yl)methoxy]furo[2,3-c]pyridine-3-carboxamide], the IC50 was > 20 µM.
`Cc1ncsc1COc1cc2c(C(=O)NC(C)(C)C(N)=O)c(C)oc2cn1` [Cpd 011, 2-methyl-2-({2-methyl-5-[(4-methyl-1,3-thiazol-5-yl)methoxy]furo[2,3-c]pyridin-3-yl}formamido)propanamide] returned an IC50 of 1 to 20 µM.
In turn, `Cc1ncsc1COc1cc2c(C(=O)NC3(CO)CCOCC3)c(C)oc2cn1` [Cpd 035, N-[4-(hydroxymethyl)oxan-4-yl]-2-methyl-5-[(4-methyl-1,3-thiazol-5-yl)methoxy]furo[2,3-c]pyridine-3-carboxamide] returned an IC50 of 1 to 20 µM.
Compound `Cc1oc2cnc(OCc3ccccn3)cc2c1C(=O)NC1(CO)CCC1` [Cpd 029, N-[1-(hydroxymethyl)cyclobutyl]-2-methyl-5-[(pyridin-2-yl)methoxy]furo[2,3-c]pyridine-3-carboxamide] registered an IC50 of 1 to 20 µM.
In the case of `Cc1oc2cnc(OCc3ccccc3)cc2c1C(=O)NC(C)C(N)=O` (stereo not drawn) [Cpd 010-Enl, 2-{[5-(benzyloxy)-2-methylfuro[2,3-c]pyridin-3-yl]formamido}propanamide] it was 1 to 20 µM; in that of `Cc1ncsc1COc1cc2c(C(=O)NC3(CO)CCC3)c(C)oc2cn1` [Cpd 028, N-[1-(hydroxymethyl)cyclobutyl]-2-methyl-5-[(4-methyl-1,3-thiazol-5-yl)methoxy]furo[2,3-c]pyridine-3-carboxamide], 1 to 20 µM; in that of `Cc1oc2cnc(OCc3ccccn3)cc2c1C(=O)NC1(CO)COC1` [Cpd 034, N-[3-(hydroxymethyl)oxetan-3-yl]-2-methyl-5-[(pyridin-2-yl)methoxy]furo[2,3-c]pyridine-3-carboxamide], > 20 µM.
In the case of `Cc1oc2cnc(OCc3ccccc3F)cc2c1C(=O)NC(CO)C(N)=O` (single isomer, unassigned) [Cpd 008-En2, 2-({5-[(2-fluorophenyl)methoxy]-2-methylfuro[2,3-c]pyridin-3-yl}formamido)-3-hydroxypropanamide], the IC50 was < 1 µM.
